Assay results from ChEMBL document CHEMBL3124745, “4-Bicyclic heteroaryl-piperidine derivatives as potent, orally bioavailable stearoyl-CoA desaturase-1 (SCD1) inhibitors: part 2. Pyridazine-based analogs” (Bioorg Med Chem Lett, 2014).

Assays:
Stearoyl-CoA desaturase = target: T1, Stearoyl-CoA desaturase (Homo sapiens, UniProt O00767); test: Inhibition of SCD1 in human A431 cells assessed as [13C]-palmitic acid conversion to [13C]-palmitoleic acid after 4 hrs by LC/MS analysis; assay type: cell-based, A-431
T1 sequence (O00767 whole entry): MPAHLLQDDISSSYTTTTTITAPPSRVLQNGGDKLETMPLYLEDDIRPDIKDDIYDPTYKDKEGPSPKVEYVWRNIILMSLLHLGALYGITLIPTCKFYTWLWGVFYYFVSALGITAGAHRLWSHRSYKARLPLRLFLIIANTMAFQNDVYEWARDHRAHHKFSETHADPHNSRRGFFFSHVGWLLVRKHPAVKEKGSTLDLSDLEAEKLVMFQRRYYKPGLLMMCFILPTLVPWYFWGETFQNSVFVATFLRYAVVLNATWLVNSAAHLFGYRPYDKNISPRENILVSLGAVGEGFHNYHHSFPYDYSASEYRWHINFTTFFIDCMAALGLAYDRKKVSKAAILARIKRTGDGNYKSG

[1] = Metabolic stability in rat liver microsomes assessed as compound remaining measured at 10 mins; assay type: ADME; conditions: read-out: Stability
Acyl-CoA desaturase 1 = target: T2, Acyl-CoA desaturase 1 (Rattus norvegicus, UniProt P07308); test: Inhibition of SCD1 in Sprague-Dawley rat liver microsomes using stearoyl-[9,10-3H]-CoA as substrate
T2 sequence (P07308 whole entry): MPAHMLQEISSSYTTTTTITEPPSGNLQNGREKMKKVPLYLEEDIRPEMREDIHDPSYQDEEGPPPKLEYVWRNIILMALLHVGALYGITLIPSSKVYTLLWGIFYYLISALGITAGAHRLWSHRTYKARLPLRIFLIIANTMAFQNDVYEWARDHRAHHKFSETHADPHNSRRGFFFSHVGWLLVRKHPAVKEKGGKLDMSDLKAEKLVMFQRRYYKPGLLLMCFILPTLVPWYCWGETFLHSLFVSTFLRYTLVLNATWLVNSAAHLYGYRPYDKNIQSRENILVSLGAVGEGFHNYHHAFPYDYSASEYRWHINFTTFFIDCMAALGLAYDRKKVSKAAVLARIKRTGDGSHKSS

[2] = Metabolic stability in human liver microsomes assessed as compound remaining measured at 10 mins; assay type: ADME; conditions: read-out: Stability
Mus musculus [3] = test: Antiobesity activity in diet-induced obese C57BL/6 mouse assessed as change in body weight at 30 mg/kg, po qd for 10 days (reference value: 2.8 +/- 0.3 g); assay type: functional
Rattus norvegicus [4] = test: Antiobesity activity in Zucker fa/fa rat assessed as effect on body weight gain at 10 mg/kg measured on day 8 (reference value: 61 +/- 7 g); assay type: functional
Rattus norvegicus [5] = test: Antiobesity activity in Zucker fa/fa rat assessed as reduction in body weight gain at 10 mg/kg after 26 days relative to control; assay type: functional; parameters: scale not given: the % may be the effect or the level left
Rattus norvegicus [6] = test: Antiobesity activity in Zucker fa/fa rat assessed as effect on body weight gain at 1 mg/kg measured on day 22 (reference value: 142 +/- 4 g); assay type: functional
Rattus norvegicus [7] = test: Toxicity in Zucker fa/fa rat assessed as change in food intake at 1 to 3 mg/kg after 26 days; assay type: organism-based; parameters: dose 1-3 mg/kg; conditions: in vivo, 624 h
Rattus norvegicus [8] = test: Antiobesity activity in Zucker fa/fa rat assessed as effect on body weight gain at 1 mg/kg measured on day 8 (reference value: 61 +/- 7 g); assay type: functional
Rattus norvegicus [9] = organism: Rattus norvegicus; test: Antiobesity activity in Zucker fa/fa rat assessed as reduction in body weight gain after 26 days; assay type: functional, organism-based
[10] = AUC (24 hrs) in Sprague-Dawley rat at 10 mg/kg, po; assay type: ADME, organism-based; parameters: time < 24 hr, dose 10 mg/kg, route oral; conditions: plasma
[11] = Volume of distribution in Sprague-Dawley rat at 2 mg/kg, iv; assay type: ADME, organism-based; parameters: dose 2 mg/kg, route intravenous; conditions: in vivo
Rattus norvegicus [12] = test: Antiobesity activity in Zucker fa/fa rat assessed as effect on body weight gain at 10 mg/kg measured on day 22 (reference value: 142 +/- 4 g); assay type: functional
Rattus norvegicus [13] = organism: Rattus norvegicus; test: Antiobesity activity in Zucker fa/fa rat assessed as decrease in C16:1 to C16:0 plasma desaturation index after 26 days; assay type: functional, organism-based
[14] = Clearance in Sprague-Dawley rat at 2 mg/kg, iv; assay type: ADME, organism-based; parameters: dose 2 mg/kg, route intravenous; conditions: in vivo
[15] = AUC (24 hrs) in Zucker fa/fa rat at 10 mg/kg, po; assay type: ADME, organism-based; parameters: time < 24 hr, dose 10 mg/kg, route oral; conditions: plasma
[16] = Oral bioavailability in Zucker fa/fa rat at 10 mg/kg; assay type: ADME, organism-based; conditions: in vivo
Rattus norvegicus [17] = test: Antiobesity activity in Zucker fa/fa rat assessed as effect on body weight gain at 3 mg/kg measured on day 8 (reference value: 61 +/- 7 g); assay type: functional
Rattus norvegicus [18] = organism: Rattus norvegicus; test: Antiobesity activity in Zucker fa/fa rat assessed as decrease in C18:1 to C18:0 plasma desaturation index after 26 days; assay type: functional, organism-based
Rattus norvegicus [19] = test: Antiobesity activity in Zucker fa/fa rat assessed as effect on body weight gain at 3 mg/kg measured on day 26 (reference value: 161 +/- 8 g); assay type: functional
Rattus norvegicus [20] = test: Antiobesity activity in Zucker fa/fa rat assessed as effect on body weight gain at 3 mg/kg measured on day 15 (reference value: 103 +/- 4 g); assay type: functional
Rattus norvegicus [21] = test: Antiobesity activity in Zucker fa/fa rat assessed as effect on body weight gain at 10 mg/kg measured on day 26 (reference value: 161 +/- 8 g); assay type: functional
Rattus norvegicus [22] = test: Antiobesity activity in Zucker fa/fa rat assessed as C16:1 to C16:0 plasma desaturation index at 3 mg/kg after 26 days (reference value: 0.183 +/- 0.012); assay type: functional
Mus musculus [23] = test: Toxicity in diet-induced obese C57BL/6 mouse assessed as narrow eye fissure at 30 mg/kg, po; assay type: organism-based; parameters: dose 30 mg/kg, route oral; conditions: in vivo
[24] = Oral bioavailability in Sprague-Dawley rat at 10 mg/kg; assay type: ADME, organism-based; conditions: in vivo
Rattus norvegicus [25] = test: Antiobesity activity in Zucker fa/fa rat assessed as reduction in body weight gain at 3 mg/kg after 26 days relative to control; assay type: functional; parameters: scale not given: the % may be the effect or the level left
Rattus norvegicus [26] = test: Toxicity in Zucker fa/fa rat assessed as reduction in food intake at 10 mg/kg after 22 days relative to control; assay type: organism-based; parameters: dose 10 mg/kg; scale not given: the % may be the effect or the level left; conditions: in vivo, 528 h
Rattus norvegicus [27] = test: Toxicity in Zucker fa/fa rat assessed as narrow eye fissure at 10 mg/kg; assay type: organism-based; parameters: dose 10 mg/kg; conditions: in vivo
[28] = Cmax in Sprague-Dawley rat at 10 mg/kg, po; assay type: ADME, organism-based; parameters: dose 10 mg/kg, route oral; conditions: in vivo
Rattus norvegicus [29] = test: Antiobesity activity in Zucker fa/fa rat assessed as C16:1 to C16:0 plasma desaturation index at 10 mg/kg after 26 days (reference value: 0.183 +/- 0.012); assay type: functional
Rattus norvegicus [30] = test: Antiobesity activity in Zucker fa/fa rat assessed as effect on body weight gain at 1 mg/kg measured on day 15 (reference value: 103 +/- 4 g); assay type: functional
Rattus norvegicus [31] = test: Hepatotoxicity in Zucker fa/fa rat assessed as increase in ALT level at 1 to 10 mg/kg; assay type: toxicity, organism-based; parameters: dose 1-10 mg/kg; conditions: in vivo
Rattus norvegicus [32] = test: Antiobesity activity in Zucker fa/fa rat assessed as effect on body weight gain at 10 mg/kg measured on day 15 (reference value: 103 +/- 4 g); assay type: functional
Rattus norvegicus [33] = test: Antiobesity activity in Zucker fa/fa rat assessed as effect on body weight gain at 3 mg/kg measured on day 22 (reference value: 142 +/- 4 g); assay type: functional
[34] = Cmax in Zucker fa/fa rat at 10 mg/kg, po; assay type: ADME, organism-based; parameters: dose 10 mg/kg, route oral; conditions: in vivo
Rattus norvegicus [35] = test: Hepatotoxicity in Zucker fa/fa rat assessed as increase in AST level at 1 to 10 mg/kg; assay type: toxicity, organism-based; parameters: dose 1-10 mg/kg; conditions: in vivo
Rattus norvegicus [36] = test: Antiobesity activity in Zucker fa/fa rat assessed as reduction in body weight gain at 1 mg/kg after 26 days relative to control; assay type: functional; parameters: scale not given: the % may be the effect or the level left
Rattus norvegicus [37] = test: Antiobesity activity in Zucker fa/fa rat assessed as C18:1 to C18:0 plasma desaturation index at 10 mg/kg after 26 days (reference value: 2.16 +/- 0.07); assay type: functional
Rattus norvegicus [38] = test: Antiobesity activity in Zucker fa/fa rat assessed as effect on body weight gain at 1 mg/kg measured on day 26 (reference value: 161 +/- 8 g); assay type: functional

SMILES: CCn1cc(-c2ccc(N3CCC(N4CCc5ccc(F)cc54)CC3)nn2)cn1
- IC50 (Stearoyl-CoA desaturase): 30 nM

SMILES: CCOc1cnn(-c2ccc(N3CCC(N4CCc5ccc(F)cc54)CC3)nn2)c1
- remaining at 10 min [1]: < 50%
- IC50 (Stearoyl-CoA desaturase): 9 nM
- IC50 (Acyl-CoA desaturase 1): 8 nM
- remaining at 10 min [2]: < 50%

SMILES: Cc1ccc(-c2ccc(N3CCC(N4CCc5ccc(F)cc54)CC3)nn2)cn1
- IC50 (Acyl-CoA desaturase 1): 13 nM

SMILES: CCOCCn1cc(-c2ccc(N3CCC(N4CCc5ccc(F)cc54)CC3)nn2)cn1
- remaining at 10 min [1]: < 50%
- remaining at 10 min [2]: < 50%

SMILES: Cc1cnc(-c2ccc(N3CCC(N4CCc5ccc(F)cc54)CC3)nn2)s1
- IC50 (Stearoyl-CoA desaturase): 12 nM

SMILES: CCCn1cc(-c2ccc(N3CCC(N4CCc5ccc(F)cc54)CC3)nn2)cn1
- remaining at 10 min [1]: < 50%
- remaining at 10 min [2]: < 50%

SMILES: OCCn1cc(-c2ccc(N3CCC(N4CCc5ccc(F)cc54)CC3)nn2)cn1
- IC50 (Acyl-CoA desaturase 1): 22 nM
- Activity (Mus musculus [3]): 0.5 g

SMILES: CN(C)c1ccc(-c2ccc(N3CCC(N4CCc5ccc(F)cc54)CC3)nn2)cn1
- IC50 (Stearoyl-CoA desaturase): 30 nM
- IC50 (Acyl-CoA desaturase 1): 17 nM

SMILES: OCc1ccc(-c2ccc(N3CCC(N4CCc5ccc(F)cc54)CC3)nn2)cn1
- Activity (Mus musculus [3]): -2.2 g

SMILES: Cc1ccc(-c2ccc(N3CCC(N4CCc5ccc(F)cc54)CC3)nn2)cc1
- IC50 (Stearoyl-CoA desaturase): 11 nM

SMILES: OCc1cnn(-c2ccc(N3CCC(N4CCc5ccc(F)cc54)CC3)nn2)c1
- IC50 (Stearoyl-CoA desaturase): 6 nM
- IC50 (Acyl-CoA desaturase 1): 17 nM
- Activity (Mus musculus [3]): 1.2 g

SMILES: Cn1cc(-c2ccc(N3CCC(N4CCc5ccc(F)cc54)CC3)nn2)cn1
- Activity (Rattus norvegicus [4]): 29 g
- Activity (Rattus norvegicus [5]): 51%
- Activity (Rattus norvegicus [6]): 116 g
- Activity (Rattus norvegicus [7]): Non-toxic
- Activity (Rattus norvegicus [8]): 42 g
- Activity (Rattus norvegicus [9]): Dose-dependent effect
- AUC at 24 h [10]: 38800 ng·h/mL
- Vd [11]: 0.52 L/kg
- Activity (Rattus norvegicus [12]): 72 g
- Activity (Rattus norvegicus [13]): Dose-dependent effect
- clearance [14]: 3.3 mL/min/kg
- AUC at 24 h [15]: 10800 ng·h/mL
- bioavailability [16]: 11%
- Activity (Rattus norvegicus [17]): 44 g
- Activity (Rattus norvegicus [18]): Dose-dependent effect
- Activity (Rattus norvegicus [19]): 125 g
- Activity (Rattus norvegicus [20]): 80 g
- Activity (Rattus norvegicus [21]): 78 g
- Activity (Rattus norvegicus [22]): 0.088
- Activity (Mus musculus [23]): Toxic
- bioavailability [24]: 105%
- Activity (Rattus norvegicus [25]): 22%
- Activity (Rattus norvegicus [26]): 10%
- Activity (Rattus norvegicus [27]): Toxic
- Cmax [28]: 4400 ng/mL
- Activity (Rattus norvegicus [29]): 0.078
- Activity (Rattus norvegicus [30]): 80 g
- Activity (Rattus norvegicus [31]): Non-toxic
- Activity (Rattus norvegicus [32]): 57 g
- Activity (Mus musculus [3]): -2.1 g
- Activity (Rattus norvegicus [33]): 112 g
- Cmax [34]: 1600 ng/mL
- Activity (Rattus norvegicus [35]): Non-toxic
- Activity (Rattus norvegicus [36]): 17%
- Activity (Rattus norvegicus [37]): 0.92
- Activity (Rattus norvegicus [38]): 133 g

SMILES: Cn1cc(-c2ccc(N3CCC(n4ncc5ccc(F)cc54)CC3)nn2)cn1
- IC50 (Stearoyl-CoA desaturase): 51 nM
- Activity (Mus musculus [3]): -3.3 g
